Source: patent US9968566B2, “Pharmaceutical composition for prophylaxis and/or treatment of corneal and conjunctival diseases or presbyopia containing stilbene compound as active ingredient” (KEIO UNIVERSITY, priority 2014, dated 2018)
Values joined by “and” are separate entries in the source; they are usually repeats but may differ in a detail not shown here. Identical values can stand only once. One block for each compound: values may come before it.

Assays:
crystalline lens = assay: Smoking rat presbyopia model (Example 3): crystalline lens hardness; assay type: in vivo, Sprague-Dawley rats; details: smoking rats, 300 μM PBS solution, 5 μL instilled 4 times per day for 11 days; smoking group 1.04±0.05, non-smoking 0.75±0.04
Protocol: Six-week-old male Sprague-Dawley rats were subjected to smoking treatment to develop dry-eye, presbyopia models. Specifically, a treatment in which mainstream smoke (300 mL) was added to a rat-containing chamber 6 times at 30-minute intervals was performed for 12 days to induce keratoconjunctival epithelial damage. […] Each group consisted of 4 animals (8 eyes). After the 11-day smoking treatment, the body weight, tear volume, fluorescent staining score, and crystalline lens hardness were measured. • 0: not stained (no punctate fluorescence) • 1: weak punctate fluorescence • 2: relatively intense punctate fluorescence • 3: strong punctate fluorescence The crystalline lens hardness was measured by combining an electronic weighing scale and height gauge. A crystalline lens whose minor axis length had been previously measured was placed on an electronic weighing scale, and the weight was set to 0. The handle of a height gauge was used above the crystalline lens to allow the end portion to be in contact with the crystalline lens. Further using the handle, the end portion was lowered about 5 to 10% of the minor axis length to apply a pressure on the crystalline lens. The change in the weight at this time was measured with the electronic weighing scale, and the weight was divided by the moving distance measured with the height gauge. The resulting value was considered to be hardness. A larger value represents more hardness. For statistical analysis of the body weight, tear volume, and crystalline lens hardness, a significant difference test was performed using the Dunnett method in terms of each group with respect to the smoking group.

[1] = Measurement of radical scavenging activity (galvinoxyl radical, stopped flow method); assay type: biochemical; details: acetonitrile, deaerated with argon, absorbance at 428 nm
Protocol: Unlike active oxygen, a galvinoxyl radical (GO•), which is a relatively stable organic oxygen radical having a characteristic peak absorption at 428 nm, may be used to perform kinetic analysis in terms of the radical scavenging ability of antioxidants using ultraviolet visible spectroscopy.
In this experiment, the radical scavenging rate was measured by a stopped flow method. The following reagent was used: • Acetonitrile (Nacalai Tesque, Inc., 00433-95); and • Galvinoxyl Radical (Aldrich, G30-7).
A solution of GO• in acetonitrile (about 2.4×10^−6 M) was bubbled with argon for 7 minutes to remove molecular oxygen. […] Subsequently, the acetonitrile solutions of GO• and the compounds were simultaneously mixed to measure changes in the peak absorption of GO• (at 428 nm) over time by a stopped flow method.
Under conditions in which the concentration of each antioxidant is 10 times or more than that of GO• ([Antioxidant agent]>10[GO•]), the reduction in the absorbance at 428 nm derived from GO• follows the pseudo-first-order kinetics (equation (1)) with respect to the concentration of each antioxidant agent (antioxidant): −d[GO•]/dt=kobs[GO•] […] Integration of both sides of equation (1) leads to equation (2): ln([GO•]/[GO•]0)=−kobst (2), wherein [GO•]o is a concentration of GO• when t=0. […]

[2] = Electron spin resonance (ESR) measurement test, amount of hydroxyl radical; assay type: biochemical; details: 5 μM, 50 μM and 500 μM added to standard solution; activity order R<DR<DHR
Protocol: (§1) Resveratrol (R), as well as dimethyl resveratrol (DR) and dimethylhydroxy resveratrol (DHR), which are compounds of the present invention, were added to radicals serving as standard substances, and the amounts of remaining tyrosine radicals and hydroxyl radicals were assessed. Specifically, a standard solution comprising a 50 mM NaPi buffer (pH 7.4), 10 mM DMPO, 1.6 mM myoglobin, and 1 mM H2O2 was prepared using myoglobin as a tyrosine radical. Further, a standard solution comprising a 50 mM NaPi buffer (pH 7.4), 10 mM DMPO, 0.1 mM Fe^2+-EDTA, and 1 mM H2O2 was prepared using Fe^2+-EDTA as a hydroxyl radical. […] The ESR was set as follows: microwave power: 10 mW; adjusted frequency: 100 KHz; adjusted magnetic field: 0.1 G; receiver gain: 1000; and time constant: 0.3 s. FIGS. 1(A) and 1(B) show the results.

[3] = Electron spin resonance (ESR) measurement test, amount of tyrosine radical; assay type: biochemical; details: 5 μM, 50 μM and 500 μM added to standard solution; activity order R<DR<DHR
Protocol: as §1

[4] = system: keratoconjunctival epithelial damage caused by dry eye; assay: Therapeutic efficacy test using smoking rat (Example 3): tear volume and fluorescein staining score; assay type: in vivo, Sprague-Dawley rats; details: smoking rats, 300 μM PBS solution, 5 μL instilled 4 times per day for 11 days; for average fluorescein score (fluorescent staining score): smoking group 3.7±1.0, non-smoking 0.8±1.0; for tear volume (cotton thread test, length of wet portion): smoking group 10.0±5.0, non-smoking 14.0±9.1
Protocol: In this experiment, both eyes of each animal were used. The same drug solution was administered to both eyes of each animal, and a comparison was made among groups.
Six-week-old male Sprague-Dawley rats were subjected to smoking treatment to develop dry-eye, presbyopia models.
Specifically, a treatment in which mainstream smoke (300 mL) was added to a rat-containing chamber 6 times at 30-minute intervals was performed for 12 days to induce keratoconjunctival epithelial damage. […] Each group consisted of 4 animals (8 eyes).
After the 11-day smoking treatment, the body weight, tear volume, fluorescent staining score, and crystalline lens hardness were measured.
To determine the tear volume, tears accumulated in the cornea of rat were measured in accordance with the cotton thread test. Specifically, after the rats were anesthetized with ocular instillation of oxybuprocaine hydrochloride, a cotton thread was inserted between the palpebra and eyeball for 60 seconds, and tears were collected. The tear volume was assessed by measuring the length (mm) of the wet portion in the cotton thread.
After the completion of ocular instillation, a damaged portion in corneal epithelium was stained with a fluorescent dye (fluorescein). Then, the degree of corneal epithelial damage was assessed based on the following criteria by scoring each section of the entire cornea, which was divided into a total of 9 sections, i.e., upper, middle, and lower, and left, center, and right sections, and calculating the total value. Thereafter, the score values were compared among the groups for analysis. For statistical analysis, a significant difference test was performed by using the Dunnett method in terms of each group with respect to the smoking group. For unbiased evaluation, the content of the drug solution administered to each group was blinded from the initiation of ocular instillation to the scoring of the corneal epithelial damage, and collated after scoring.
Evaluation Criteria for Scoring of Fluorescein Staining of Corneal Epithelium
• 0: not stained (no punctate fluorescence) • 1: weak punctate fluorescence • 2: relatively intense punctate fluorescence • 3: strong punctate fluorescence The crystalline lens hardness was measured by combining an electronic weighing scale and height gauge. A crystalline lens whose minor axis length had been previously measured was placed on an electronic weighing scale, and the weight was set to 0. The handle of a height gauge was used above the crystalline lens to allow the end portion to be in contact with the crystalline lens. Further using the handle, the end portion was lowered about 5 to 10% of the minor axis length to apply a pressure on the crystalline lens. The change in the weight at this time was measured with the electronic weighing scale, and the weight was divided by the moving distance measured with the height gauge. The resulting value was considered to be hardness. A larger value represents more hardness.
For statistical analysis of the body weight, tear volume, and crystalline lens hardness, a significant difference test was performed using the Dunnett method in terms of each group with respect to the smoking group.

[5] = system: keratoconjunctival epithelial damage caused by dry eye; assay: Therapeutic efficacy test using smoking rat (Example 5), comparison with Diquas; assay type: in vivo, Sprague-Dawley rats; details: for body weight: smoking rats after 11-day treatment, instilled 5 μL 4 times per day, smoking group 280.0±5.8; for average fluorescein score (fluorescent staining score) / tear volume (cotton thread test): smoking rats, DR 300 μM in PBS or Diquas 3%, 5 μL 4 times per day for 11 days; for average fluorescein score (fluorescent staining score): smoking group 4.6±1.2, non-smoking 1.2±1.2; for tear volume (cotton thread test): smoking group 11.3±9.0, non-smoking 17.6±9.1
Protocol: In this experiment, both eyes of each animal were used. The same drug solution was administered to both eyes of each animal, and a comparison was made among groups. Six-week-old male Sprague-Dawley rats were subjected to smoking treatment to develop dry-eye models. Specifically, a treatment in which mainstream smoke (300 mL) was added to a rat-containing chamber 6 times at 30-minute intervals was performed for 12 days to induce a keratoconjunctival epithelial damage. […] The tear volume and fluorescent staining score were measured in accordance with the method described in Example 3. For statistical analysis, a significant difference test was performed using the Dunnett method in terms of each group with respect to the smoking group.

[6] = Stability test at 25° C. and 60% RH, amount by HPLC; assay type: physicochemical; details: for amount of compound remaining, single runs: first/second/third time
Protocol: After a constant period of time, the amount of each compound was measured by HPLC to evaluate the stability. The amount of the compound was calculated in accordance with: (The amount of compound after a constant period of time)/(the amount of compound at the time when the test was initiated)×100(%).

corneal epithelium = assay: Safety test: hematoxylin-eosin staining of rat cornea; assay type: in vivo; details: 300 μM PBS solution, treated for one week
Excerpt: FIGS. 8(A) and 8(B) show photographs of each tissue section.

SMILES: C/C(=C(/C)c1ccc(O)c(O)c1)c1cc(O)cc(O)c1 [DHR, (E)-4-[3-(3,5-dihydroxyphenyl)but-2-en-2-yl]benzene-1,2-diol]
crystalline lens elasticity (hardness; larger value = harder) (crystalline lens): 0.75±0.05 | radical scavenging activity (constant kHT of rate of hydrogen transfer to GO•) [1]: 2300 M⁻¹ s⁻¹ | radical generation (amount of hydroxyl radical, ESR) [2]: reduced radical generation in a concentration-dependent manner | radical generation (amount of tyrosine radical, ESR) [3]: reduced radical generation in a concentration-dependent manner | average fluorescein score (fluorescent staining score) [4]: 1.5±0.5 | tear volume (cotton thread test, length of wet portion) [4]: 13.8±11.1 mm

amount of compound remaining, average ([6]; 168 h): 99% | amount of compound remaining, average ([6]; 336 h): 98% | amount of compound remaining, average ([6]; 504 h): 96% | amount of compound remaining, average ([6]; 672 h): 94% | amount of compound remaining, average ([6]; buffer, 24 h, 10 mM): 99% | amount of compound remaining, average ([6]; buffer, 48 h, 10 mM): 96% | amount of compound remaining, average ([6]; buffer, 72 h, 10 mM): 94% | amount of compound remaining, average ([6]; buffer, 168 h, 10 mM): 88% | amount of compound remaining, average ([6]; buffer, 336 h, 10 mM): 76%
SMILES: C/C(=C(/C)c1cc(O)cc(O)c1)c1ccc(O)cc1 [DR, (E)-5-[3-(4-hydroxyphenyl)but-2-en-2-yl]benzene-1,3-diol]
body weight [5]: 271.0 ± 7.5 g | average fluorescein score (fluorescent staining score) [5]: 2.1±0.8 | tear volume (cotton thread test) [5]: 19.3±11.2 mm | crystalline lens elasticity (hardness; larger value = harder) (crystalline lens): 0.86±0.06 | radical scavenging activity (constant kHT of rate of hydrogen transfer to GO•) [1]: 0.96 M⁻¹ s⁻¹ | radical generation (amount of hydroxyl radical, ESR) [2]: reduced radical generation in a concentration-dependent manner | morphological effects on the corneal epithelium (HE staining) (corneal epithelium): did not show morphological effects on the corneal epithelium | radical generation (amount of tyrosine radical, ESR) [3]: reduced radical generation in a concentration-dependent manner | average fluorescein score (fluorescent staining score) [4]: 2.3±0.5 | tear volume (cotton thread test, length of wet portion) [4]: 8.3±4.9 mm

amount of compound remaining, average ([6]; 10 mM solution (10% DMSO in water), 1 week, 25° C. 60% RH, average of three runs): 82% | amount of compound remaining, single runs ([6]; 10 mM solution (10% DMSO in water), 1 week, 25° C. 60% RH): 80% and 82% and 85% | amount of compound remaining, average ([6]; 10 mM solution (10% DMSO in water), 2 weeks, 25° C. 60% RH, average of three runs): 64% | amount of compound remaining, single runs ([6]; 10 mM solution (10% DMSO in water), 2 weeks, 25° C. 60% RH): 59% and 65% and 68% | amount of compound remaining, average ([6]; 10 mM solution (10% DMSO in water), 1 day, 25° C. 60% RH, average of three runs): 98% | amount of compound remaining, single runs ([6]; 10 mM solution (10% DMSO in water), 1 day, 25° C. 60% RH): 98% and 99% and 96% | amount of compound remaining, average ([6]; 10 mM solution (10% DMSO in water), 2 days, 25° C. 60% RH, average of three runs): 95% | amount of compound remaining, single runs ([6]; 10 mM solution (10% DMSO in water), 2 days, 25° C. 60% RH): 95% and 96% | amount of compound remaining, average ([6]; 10 mM solution (10% DMSO in water), 3 days, 25° C. 60% RH, average of three runs): 91% | amount of compound remaining, single runs ([6]; 10 mM solution (10% DMSO in water), 3 days, 25° C. 60% RH): 90% and 93% | amount of compound remaining, average ([6]; solid, 1 week, 25° C. 60% RH, average of three runs): 99% | amount of compound remaining, single runs ([6]; solid, 1 week, 25° C. 60% RH): 100% and 101% and 97% | amount of compound remaining, average ([6]; solid, 2 weeks, 25° C. 60% RH, average of three runs): 95% | amount of compound remaining, single runs ([6]; solid, 2 weeks, 25° C. 60% RH): 96% and 94% | amount of compound remaining, average ([6]; solid, 3 weeks, 25° C. 60% RH, average of three runs): 91% | amount of compound remaining, single runs ([6]; solid, 3 weeks, 25° C. 60% RH): 91% and 90% and 92% | amount of compound remaining, average ([6]; solid, 4 weeks, 25° C. 60% RH, average of three runs): 86% | amount of compound remaining, single runs ([6]; solid, 4 weeks, 25° C. 60% RH): 88% and 86% and 85%
SMILES: Oc1ccc(/C=C/c2cc(O)cc(O)c2)cc1 [Resveratrol, trans-1,2-(3,4′,5-trihydroxydiphenyl)ethylene, reference compound]
crystalline lens elasticity (hardness; larger value = harder) (crystalline lens): 0.87±0.06 | radical generation (amount of hydroxyl radical, ESR) [2]: reduced radical generation in a concentration-dependent manner | radical generation (amount of tyrosine radical, ESR) [3]: reduced radical generation in a concentration-dependent manner | tear volume (cotton thread test, length of wet portion) [4]: 6.9±4.3 mm

SMILES: O=c1ccn([C@@H]2O[C@H](COP(=O)(O)OP(=O)(O)OP(=O)(O)OP(=O)(O)OC[C@H]3O[C@@H](n4ccc(=O)[nH]c4=O)[C@H](O)[C@@H]3O)[C@@H](O)[C@H]2O)c(=O)[nH]1 [diquafosol sodium, reference compound]
body weight [5]: 273.8 ± 4.3 g | average fluorescein score (fluorescent staining score) [5]: 4.3±1.6 | tear volume (cotton thread test) [5]: 11.0±6.5 mm
